Assay: xn = mol fraction of the nth substance listed
Conditions: 298.15 K, 101 kPa

O + CC(=O)[O-].CC[NH2+]CC
Conditions | speed of sound [m/s]
x1 = 1 | 1496

O + CC[NH2+]CC.O=S(=O)([O-])O
x1 = 1
Conditions | speed of sound [m/s] | viscosity [mPa·s]
– | 1496 | 0.89

O + CC[NH+](CC)CC.O=S(=O)([O-])O
x1 = 1
Conditions | speed of sound [m/s] | viscosity [mPa·s]
– | 1496 | 0.89

O + C[NH+](C)C.O=S(=O)([O-])O
x1 = 1
Conditions | speed of sound [m/s] | viscosity [mPa·s]
– | 1496 | 0.89

CC(=O)[O-].CC[NH2+]CC + O
Conditions | speed of sound [m/s]
x2 = 0 | 1608
x2 = 0.0881 | 1602
x2 = 0.1637 | 1599
x2 = 0.2293 | 1598
x2 = 0.2866 | 1597
x2 = 0.3373 | 1596
x2 = 0.459 | 1594
x2 = 0.5741 | 1589
x2 = 0.6182 | 1585
x2 = 0.6562 | 1581
x2 = 0.7179 | 1572
x2 = 0.7433 | 1568
x2 = 0.8208 | 1551
x2 = 0.8735 | 1538
x2 = 0.8941 | 1532
x2 = 0.9197 | 1524
x2 = 0.9468 | 1516
x2 = 0.9634 | 1510

CC(=O)[O-].C[NH+](C)C + O
Conditions | speed of sound [m/s] | viscosity [mPa·s]
x1 = 0.0451 | 1499 | 1.199
x1 = 0.0651 | 1503 | 1.31
x1 = 0.0978 | 1504 | 1.5
x1 = 0.1283 | 1507 | 1.64
x1 = 0.1524 | 1510 | 1.75
x1 = 0.2133 | 1517 | 1.99
x1 = 0.3002 | 1525 | 2.24
x1 = 0.328 | 1527 | 2.31
x1 = 0.3943 | 1532 | 2.43
x1 = 0.4341 | 1534 | 2.48
x1 = 0.4797 | 1535 | 2.52
x1 = 0.5325 | 1537 | 2.56
x1 = 0.6292 | 1538 | 2.61
x1 = 0.7094 | 1539 | 2.62
x1 = 0.7556 | 1540 | 2.63
x1 = 0.9278 | 1542 | 2.69
x1 = 1 | 1544 | 2.76

CC[NH+](CC)CC.O=S(=O)([O-])O + O
Conditions | speed of sound [m/s] | viscosity [mPa·s]
x2 = 0 | 1874 | 235
x2 = 0.1228 | 1828 | 210
x2 = 0.2209 | 1819 | 195
x2 = 0.3679 | 1836 | 176
x2 = 0.4728 | 1844 | 162
x2 = 0.5147 | 1843 | 156
x2 = 0.6613 | 1795 | 129
x2 = 0.7011 | 1772 | 120
x2 = 0.7866 | 1702 | 95.2
x2 = 0.8075 | 1677 | 87.3
x2 = 0.869 | 1616 | 63.1
x2 = 0.9091 | 1581 | 48.8
x2 = 0.9432 | 1542 | 29.5
x2 = 0.9627 | 1526 | 19.9
x2 = 0.9743 | 1507 | 14.14

CC[NH2+]CC.O=S(=O)([O-])O + O
Conditions | speed of sound [m/s] | viscosity [mPa·s]
x2 = 0.1212 | 1426 | 30.4
x2 = 0.2183 | 1429 | 29.6
x2 = 0.2979 | 1433 | 30.1
x2 = 0.3644 | 1436 | 31
x2 = 0.4207 | 1437 | 31.3
x2 = 0.5476 | 1443 | 32.3
x2 = 0.6578 | 1441 | 31.4
x2 = 0.6979 | 1440 | 30.2
x2 = 0.7314 | 1439 | 28.8
x2 = 0.7841 | 1437 | 26
x2 = 0.8051 | 1438 | 24.6
x2 = 0.8673 | 1439 | 19.3
x2 = 0.9079 | 1444 | 15.14
x2 = 0.9233 | 1448 | 13.51
x2 = 0.9424 | 1454 | 11.06
x2 = 0.9622 | 1461 | 8.48
x2 = 0.9741 | 1468 | 6.19

C[NH+](C)C.O=S(=O)([O-])O + O
Conditions | speed of sound [m/s] | viscosity [mPa·s]
x2 = 0 | 1564 | 5.1
x2 = 0.1369 | 1553 | 4.86
x2 = 0.1942 | 1555 | 4.74
x2 = 0.2919 | 1558 | 4.53
x2 = 0.3723 | 1562 | 4.34
x2 = 0.4691 | 1565 | 4.05
x2 = 0.5219 | 1564 | 3.88
x2 = 0.6073 | 1556 | 3.54
x2 = 0.6734 | 1541 | 3.22
x2 = 0.7012 | 1531 | 3.08
x2 = 0.7878 | 1502 | 2.58
x2 = 0.8724 | 1472 | 2.01
x2 = 0.9027 | 1470 | 1.76
x2 = 0.9352 | 1466 | 1.49

— a compilation of properties of binary mixtures (doi:10.1021/jp502400z)
